Patent publication US4332803A, “Benzanilide derivative” (Mead Johnson & Company, priority 1980, dated 1982)
Where two headings read alike, the source gives them in different places.

Assays:
in vivo = conditions: mouse, in vivo, po
From the text: (§1) II. AlD50 /ATD50 mouse treated orally; ALD50 is the
(§2) lethal dose for half the animals; ATD50 is the approximate
(§3) lowest dose where signs of physiologic or neurologic deficit
(§4) appear in half the animals, expressed as mg/kg body weight.

[1] = test system: ventricular arrhythmia in mice produced by chloroform inhalation; experiment: Test I: antiarrhythmic activity for ventricular arrhythmia in mice produced by chloroform inhalation; type: in vivo; conditions: for ED50: Mus musculus, ip, read-out: Antiarrhythmic activity, ED50
From the text: I. Antiarrhythmic activity for ventricular arrhythmia in mice
produced by chloroform inhalation; ED50 expressed as mg/kg
body weight, intraperitoneal administration, J. W. Lawson, […]

clinical = conditions: for half-life: human
Procedure: III. Time following oral dosing of humans with 75 mg. of encainide
hydrochloride for clearance (plasma concentration <20 ng./ml.)
from blood plasma; hours.
IV. Approximate half life in human blood plasma following oral
dosing with encainide hydrochloride; hours.
A. Extraction of Biological Fluid.
B. High Pressure Liquid Chromatography (HPLC) Conditions. […] These standards were treated as described above.

[2] = following treatment with encainide; cited from earlier work
mouse = experiment: Test II: approximation of the oral toxicity in mice (ALD50/ATD50); conditions: comparison among the tabulated compounds, mice
From the text: as §1, §2, §3, §4

[3] = man, two or more hours following 50 mg. dose of encainide hydrochloride orally
Procedure: A. Extraction of Biological Fluid. To 1 ml of plasma or urine in a screw-capped tube there is added 0.2 ml of 0.5 M. Tris-HCl buffer (2-amino-2-hydroxymethyl-1,3-propanediol), pH 8.5, and 10 ml of n-butyl chloride containing 5% by volume of isopropanol. The sample is then shaken on an oscillating mixer followed by centrifugation to separate the phases. A 9 ml aliquot of the organic layer is removed and evaporated to dryness under a stream of nitrogen and the residue is redissolved in 100 mcl of ethanol. A 50 mcl aliquot of this solution is injected onto the column for high pressure liquid chromatography.
B. High Pressure Liquid Chromatography (HPLC) Conditions. A normal phase silicic acid column having dimensions 3.9 mm by 30 cm in length equipped with a variable wavelength UV detector set at 254 nm is used. The mobil phase employed consists of 500 ml of ethanol, 30 ml of water, and 0.1 ml of methanesulfonic acid at a flow rate of 1 ml per minute. A series of standards containing 0, 25, 100 and 500 ng/ml of each compound to be assayed was prepared using pooled human plasma. These standards were treated as described above. Quantification of the detector response was achieved by digital integration or measurement of peak heights. The standard curve for each component was constructed by linear regression of the detector response versus concentration from the plasma standards. […]

[4] = mice, chloroform inhalation, intraperitoneal administration, ranges are of various determinations

What does the source list for `COc1ccc(C(=O)Nc2ccccc2CCC2CCCCN2)cc1` (stereo not drawn) [compound 139, N-demethylencainide]?
LD50 (in vivo): 147 mg/kg; TD50 (in vivo): 15.7 mg/kg; ED50 [1, 4]: 28 mg/kg

For `COc1ccc(C(=O)Nc2ccccc2CCC2CCCCN2C)cc1` (stereo not drawn) [Compound No. 107, encainide], which LD50 (in vivo) is on record?
The LD50 was 50 to 100 mg/kg.

What about the TD50 (in vivo) of the same compound?
The TD50 was 5 to 10 mg/kg.

What about the ED50 [1, 4] of the same compound?
The ED50 was 5.3 to 15 mg/kg.

What about the half-life (clinical; in vivo, po) of the same compound?
The half-life was 2.5 to 3 h.

What about the “Time following oral dosing for clearance (plasma concentration <20 ng./ml.) from blood plasma” value (from here on “Time following oral dosing for clearance”) (clinical; in vivo, po) of the same compound?
Its value is 6 h.

Which LD50 (in vivo) does the source give for `COc1cccc(C(=O)Nc2ccccc2CCC2CCCCN2C)c1` (stereo not drawn) [compound 108] here?
Its LD50 is 100 mg/kg.

What about the TD50 (in vivo) of the same compound?
The TD50 was 10 to 25 mg/kg.

What about the ED50 [1, 4] of the same compound?
Its ED50 is 10 mg/kg.

For `CN1CCCCC1CCc1ccccc1NC(=O)c1ccc(O)cc1` (stereo not drawn) [Compound No. 89, O-demethylencainide], which “Amount in plasma relative to encainide” value [2] is on record?
The value was “several times the concentration of encainide”.

And the LD50 (in vivo)?
The LD50 was 25 to 50 mg/kg.

And the TD50 (in vivo)?
The TD50 was 5 to 10 mg/kg.

And the “Toxicity (in words)” value (mouse)?
Its value is “somewhat more toxic in mice”.

And the ED50 [1]?
Its ED50 is 1.7 to 2.8 mg/kg.

And the “Antiarrhythmic activity (in words)” value ([1]; comparison among the tabulated compounds, mice)?
Its value is “somewhat more potent”.

And the half-life (clinical; in vivo, po, 75 mg)?
Its half-life is 4 to 6 h.

And the “Time following oral dosing for clearance” value (clinical; humans dosed orally with 75 mg. of encainide hydrochloride)?
The value was greater than 16 h.

For `COc1ccc(C(=O)Nc2ccccc2CCC2CCCCN2C)cc1OC` (stereo not drawn) [compound 109], which LD50 (in vivo) is on record?
Its LD50 is 100 mg/kg.

What about the TD50 (in vivo) of the same compound?
Its TD50 is 25 mg/kg.

What about the ED50 [1, 4] of the same compound?
The ED50 was 10 mg/kg.

Which LD50 (in vivo) does the source give for `COc1cc(C(=O)Nc2ccccc2CCC2CCCCN2C)ccc1O` (stereo not drawn) [Compound A, 4-Hydroxy-3-methoxy-N-[2-[2-(1-methyl-2-piperidinyl)ethyl]phenyl]benzamide] here?
Its LD50 is 250 mg/kg.

And the TD50 (in vivo)?
The TD50 was 31.3 to 62.5 mg/kg.

And the “Toxicity (in words)” value (mouse)?
Its value is “reduced toxicity”.

What about the “Concentration in blood plasma relative to Compound No. 89” value [3] of the same compound?
Its value is “substantially greater”.

What about the ED50 [1, 4] of the same compound?
The ED50 was 9.5 mg/kg.

And the half-life (clinical; in vivo, po)?
The half-life was 4 to 6 h.

And the “Presence in the blood (in words)” value (clinical; in vivo, po)?
Its value is “more prolonged presence in the blood”.

And the “Time following oral dosing for clearance” value (clinical; in vivo, po)?
Its value is greater than 16 h.
